Test results published in patent US10894794B1, “Substituted [1,2,4]triazolo[4,3-a]pyrazines as antidiabetics” (King Abdulaziz University, priority 2019, dated 2021).
Marks after values point to notes of the source that are not given here.

Assays:
Assay type in all cases: in vivo
[1] = tested on: 14 h overnight fasted diabetic mice; assay: Oral glucose tolerance test (OGTT) after single dose; conditions: for glucose-lowering activity in OGTT compared with sitagliptin (in words): single dose 50 mg/kg; for Relative potency to sitagliptin (OGTT AUC) / AUC in OGTT, % change from diabetic control / AUC in OGTT, Δ from diabetic control / AUC in OGTT, X (arithmetic mean): single oral dose 50 mg/kg; for AUC in OGTT, X (arithmetic mean): AUC 0-120 min
Experimental: The oral glucose tolerance test was done in 14 h overnight fasted diabetic mice that were pretreated with a single oral dose of the tested compounds. Each of the tested agents was suspended in sodium carboxymethyl cellulose (CMC-Na) (1% in distilled water) and the dosing volume was adjusted to 10 ml/kg body weight per mouse. Then an oral glucose load was administered (2 g/kg) 2 h after drug treatment. Blood glucose levels were determined using the Accu-check Go® (Roche Diagnostics, Michigan, USA). Blood samples were collected just before drug administration (Fasting Blood glucose), then 2 h after drug treatment and before glucose loading. Blood samples collection was continued at 20, 40, 60 and 120 min intervals after glucose loading.
Animals were distributed between 17 groups (n=6) as follow: • a. Group 1: Animals were 14 h overnight-fasted normoglycemic mice and vehicle-treated (1% CMC-Na) at a dose of 10 ml/kg. • b. Group 2: Overnight fasted diabetic mice received the vehicle (1% CMC-Na) at a dosing volume of 10 ml/kg and served as a negative control. • c. Group 3: Overnight fasted diabetic mice received sitagliptin at a dose of 50 mg/kg in 1% CMC (in a volume of 10 ml/kg) and served as positive control. • a. Groups 4-17: Animals of these groups were overnight fasted diabetic mice received the tested compounds 128, 129, 130, 131, at a dose of 50 mg/kg in 1% CMC (volume of 10 ml/kg).

[2] = tested on: overnight fasted diabetic mice; assay: OGTT after multiple doses (6 consecutive days); conditions: for AUC in OGTT, % change from diabetic control / AUC in OGTT, Δ from diabetic control / Relative potency to sitagliptin (OGTT AUC) / AUC in OGTT, X (arithmetic mean): 50 mg/kg oral for six days; for AUC in OGTT, X (arithmetic mean): 2 h before glucose loading, AUC 0-120 min
Experimental: The tested compounds were given daily by oral gavage for 6 consecutive days. On day 6, the overnight fasted diabetic mice were pretreated with the 6th oral dose of the tested compounds. Then an oral glucose was loaded (2 g/kg/10 ml b.w.) 2 h after drug treatment. Blood glucose levels were determined using the Accu-check Go® (Roche Diagnostics, Michigan, USA). Samples were collected just before drug administration (Fasting Blood glucose), then 2 h after drug treatment and before glucose administration. Sample collection was continued at 20, 40, 60 and 120 min intervals after glucose loading.
• b. Group 1: Animals of this group are 14 h overnight-fasted normoglycemic mice received the vehicle (1% CMC-Na) at a dosing volume of 10 ml/kg/day for six consecutive days. • c. Group 2: Overnight-fasted diabetic mice received the vehicle (1% CMC-Na) at a dosing volume of 10 ml/kg/day for six consecutive days and served as a negative control. • d. Group 3: Overnight-fasted diabetic mice received sitagliptin at a dose of 50 mg/kg/day for six consecutive days and served as positive control. • e. Groups 4-17: Animals in these groups were overnight-fasted diabetic mice and received the tested compounds 128, 129, 130, 131, at a dose of 50 mg/kg/day for six consecutive days (volume of 10 ml/kg). Effect on Blood Glucose Level after Introduction of Food for One Hour (≈Meal Tolerance Test) Rational of the Test

[3] = tested on: 14 h overnight-fasted diabetic mice; assay: Blood glucose after introduction of food for one hour (meal tolerance test); conditions: for antihyperglycemic activity after introduction of food (blood glucose rise and total AUC(0-180), in words): 50 mg/kg, 3 h before introduction of food; for Area under the curve AUC(0-180) after meal feeding: Day 1, 50 mg/kg oral, 3 hr pretreated
Experimental: The rational of this test was to determine the ability of the tested compounds to modulate glucose utilization after the introduction of food, after 3 h of drug administration to 14 h overnight-fasted mice (feeding with normal diet was done for 1 hr only, then food was removed during the remaining time of the test). This model is analogous to oral glucose tolerance tests (OGTT) used clinically to evaluate glycemic control, except that the meal was composed of fats, proteins and carbohydrates, and thus was a more realistic representation of the nutritional makeup of normal food. The main purpose is that during meal digestion, food contents e.g. carbohydrates, proteins and fats, were reported to cause an increase in the production of the GLP-I from the L-cells in ileum and colon. The produced GLP-I goes into circulation directly and affects insulin secretion from pancreatic β-cells. Both the GPL-I and insulin levels are expected to be high especially in the presence of a […] inhibitor.
Animals were Distributed Between 17 Groups (n=6) as Follows: • a. Group 1. Animals of this group were overnight-fasted normoglycemic mice and received the vehicle (1% CMC-Na) at a volume of 10 ml/kg/day for 4 consecutive days. • b. Group 2: overnight-fasted diabetic mice received the vehicle (1% CMC-Na) at a volume of 10 ml/kg/day for 4 consecutive days and served as a negative control. • c. Group 3: overnight fasted diabetic mice received sitagliptin at a dose of 50 mg/kg/day for 4 consecutive days in 1% CMC (in a volume of 10 ml/kg) and served as positive control. • d. Groups 4-19: Animals of these groups were overnight-fasted diabetic mice and received the tested compounds 128, 129, 130, 131,140, 142 at a dose of 50 mg/kg/day for 4 consecutive days in 1% CMC (volume of 10 ml/kg). Food was introduced for one hour only then food was removed immediately. Blood glucose levels were determined just before and 3 h after drug administration and then at 0, 60, 120 and 180 min after meal. Blood Sampling and Blood Glucose Determination
(§1) Blood samples were collected from the tail vein and the blood glucose level was determined. Curves of blood glucose levels (mg/dL) versus the time intervals (min) were constructed and the area under the curves (AUCs) were calculated by the method of calculation embedded in GraphPad Prism® v. 5.0 (GraphPad Software, San Diego, Calif., USA). AUCs of the curves of the different groups were compared and tested for significance against control groups.

STZ-diabetic mice = assay: Fasting blood glucose of diabetic mice during six days of treatment; conditions: for activity in controlling the rise of blood glucose levels in streptozotocin diabetic animals (in words) / control of fasting blood sugar compared with sitagliptin and the other compounds (in words): 50 mg/kg/day; for activity in controlling the rise of blood glucose levels in streptozotocin diabetic animals (in words): 6-day interval; for control of fasting blood sugar compared with sitagliptin and the other compounds (in words): 6 days; for Blood glucose level, fasting: 50 mg/kg/day oral, diabetic mice, mean ± SEM
Description: Our objective was to test the efficacy of the synthesized compounds for their potential to reduce blood glucose in STZ-diabetic mice. The synthesized compounds Nos. 128, 129, 130, 131,140, 142 were expected to act through the inhibition of the DPP-IV enzyme, which is responsible for the degradation of the entero-peptide GLP-I. In turn, GLP-I increases insulin and decreases glucagon release from the pancreatic islets (β and α-cells respectively). So this part of the project was designed to study the effect of the synthesized gliptin simulated compounds on blood glucose levels and their efficacy to increase glucose utilization in diabetic mice through: • a. The effect of the tested compounds in a dose of 50 mg/kg/day on fasting blood glucose blood levels of diabetic mice during six days of treatment. • b. Oral glucose tolerance test (OGTT) through oral glucose loading, 2 h after treatment with single oral dose (50 mg/kg) of the tested compounds in 14 h overnight fasted mice. • c. OGTT through oral glucose loading, 2 h after treatment with the 6th oral dose (50 mg/kg) of the tested compounds in 14 h overnight fasted mice. • d. The effect of the pretreatment with the tested compounds at an oral dose of 50 mg/kg on blood glucose levels, 3 h before and 3 h after meal feeding (feeding for one hour only, then food was removed immediately) in 14 h overnight-fasted diabetic mice.
as §1
All data are presented as means±SEM. Statistical significance was evaluated by analysis of variance (ANOVA) followed by Tukey-Kramer's post hoc test for multiple comparisons. The “t” of the paired data was used to test the significance of the values of the fasting blood glucose compared to the values before treatment. Statistical significance was accepted at a level of p<0.05.

Row | Structure (SMILES) | glucose-lowering activity in OGTT compared with sitagliptin (in words) [1] | Relative potency to sitagliptin (OGTT AUC) [1] | AUC in OGTT, % change from diabetic control ([1]; 2 h before glucose loading) [%] | AUC in OGTT, Δ from diabetic control ([1]; 2 h before glucose loading) [mg·min/dL] | AUC in OGTT, X (arithmetic mean) ([1]; 2 h before glucose loading) | AUC in OGTT, % change from diabetic control [2] [%] | AUC in OGTT, Δ from diabetic control [2] [mg·min/dL] | Relative potency to sitagliptin (OGTT AUC) [2] | AUC in OGTT, X (arithmetic mean) [2] | antihyperglycemic activity after introduction of food (blood glucose rise and total AUC(0-180), in words) [3] | Area under the curve AUC(0-180) after meal feeding [3] | activity in controlling the rise of blood glucose levels in streptozotocin diabetic animals (in words) (STZ-diabetic mice) | control of fasting blood sugar compared with sitagliptin and the other compounds (in words) (STZ-diabetic mice) | Blood glucose level, fasting (STZ-diabetic mice; Day 4) [mg/dL] | Blood glucose level, fasting (STZ-diabetic mice; Day 5) [mg/dL] | Blood glucose level, fasting (STZ-diabetic mice; Day 6) [mg/dL] | relative potency in OGTT compared with sitagliptin (in words) ([2]; 6 consecutive days, 50 mg/kg) | control of fasting blood sugar compared with sitagliptin and the other compounds (in words) (STZ-diabetic mice; listed as 131) | reduction in the total AUC compared to the diabetic control mice ([1]; single dose, 2 h before glucose loading, AUC 0-120) [%]
1 | O=C(NCC(=O)N1CCn2c(nnc2C(F)(F)F)C1)c1cccc(Cl)c1 [GLP-128] | higher glucose-lowering activity than sitagliptin | 1.2 | −29.15 | -14887 | 36178* mg · dL^−1 · min | −11.93 | -6287 | 0.32 | 46368 mg·min/dL | significant antihyperglycemic activity | 69336 ± mg · dL^−1 · min | significant activity | least effective | 195.00 ± 27.49 | 200.60 ± 23.21 | 188.60 ± 15.86 | – | – | –
2 | O=C(NCCC(=O)N1CCn2c(nnc2C(F)(F)F)C1)c1cccc(Cl)c1 [GLP-129] | less potent than sitagliptin | 0.45 | −10.93 | -5585 | 45480 mg·min/dL | −11.76 | -6197 | 0.31 | 46458 mg·min/dL | significant antihyperglycemic activity | 73248 ± mg · dL^−1 · min | significant activity | comparable to that of sitagliptin | – | – | – | – | – | –
3 | O=C(NCC(=O)N1CCn2c(nnc2C(F)(F)F)C1)c1ccc(Cl)cc1 [GLP-131] | higher glucose-lowering activity than sitagliptin | 1.52 | −36.88 | -18835 | 32230* mg · dL^−1 · min | −49.59 | -26113 | 1.31 | 26542* mg · dL^−1 · min | significant antihyperglycemic activity | 56340 ± mg · dL^−1 · min | significant activity | most consistent and extended activities | – | – | – | comparable or higher relative potency than sitagliptin | comparable to that of sitagliptin | –
4 | N[C@@H](CC(=O)N1CCn2c(nnc2C(F)(F)F)C1)Cc1cc(F)c(F)cc1F [Sitagliptin, sitagliptin, reference compound] | – | 1 | −24.20 | -12362 | 38703* mg · dL^−1 · min | −37.85 | -19932 | 1 | 32723 mg·min/dL | significant antihyperglycemic activity | 51776 ± mg · dL^−1 · min | – | – | – | – | – | – | – | 24.2
